Assays:
14-3-3 protein gamma [1] = target: T1, 14-3-3 protein gamma (Homo sapiens, UniProt P61981); assay: Inhibition of recombinant GST-tagged 14-3-3gamma interaction with PRAS40 in Cos7 cell lysate by ELISA; format: cell-free
T1 sequence (P61981 whole entry): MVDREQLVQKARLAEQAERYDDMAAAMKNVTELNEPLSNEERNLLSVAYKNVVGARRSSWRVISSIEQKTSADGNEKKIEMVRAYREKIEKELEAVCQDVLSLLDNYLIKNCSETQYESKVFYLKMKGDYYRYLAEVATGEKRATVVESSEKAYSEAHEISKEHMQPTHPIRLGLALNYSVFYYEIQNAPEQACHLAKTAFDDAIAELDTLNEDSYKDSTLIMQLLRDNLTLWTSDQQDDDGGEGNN

14-3-3 protein gamma [2] = target: T1, 14-3-3 protein gamma; assay: Inhibition of recombinant GST-tagged 14-3-3gamma interaction with TMR-pS259-Raf peptide after 30 mins by fluorescence polarization assay

Row | Compound | IC50 (14-3-3 protein gamma [1]) [µM] | IC50 (14-3-3 protein gamma [2]) [µM]
1 | O=C(Cc1ccc(O)c(O)c1)OCCc1ccc(O)c(O)c1 [BLAPSIN A] | 9.2 | 2
2 | Oc1ccc(C2OCCc3cc(O)c(O)cc32)cc1O (racemic) [BLAPSIN B] | 10 | 2.5

— ChEMBL document CHEMBL2029347, “Identification of blapsins A and B as potent small-molecule 14-3-3 inhibitors from the insect Blaps japanensis” (Bioorg Med Chem Lett, 2012)
